Assay results reported in a melting point compilation (Tetko et al.).

SMILES | melting point
CC(C)(C)NS(=O)(=O)c1cccc(C(=O)O)c1 | 145 to 147 °C
Cc1ccc(NS(=O)(=O)c2cc([N+](=O)[O-])ccc2NN)c(C)c1 | 165 to 167 °C
CN(C)C(=O)Cc1ccc(N)cc1 | 97 to 99 °C
COc1ccc(-c2noc(CCC(=O)O)n2)cc1 | 141 to 143 °C
O=C(O)CCCC(=O)c1ccc(Cl)c(Cl)c1 | 140 to 142 °C
Nc1ncn(-c2ccccn2)n1 | 174 to 176 °C
O=C(O)c1noc(-c2cccc(F)c2)n1 | 120 to 122 °C
Cc1ccc(S(=O)(=O)N2CCCC(C(=O)O)C2)cc1 (configuration not stated) | 149 to 151 °C
COc1cc(C(=O)O)ccc1OCC(=O)N1CCOCC1 | 162 to 164 °C
COC(=O)c1sc(N2CCOCC2)nc1N | 156 to 158 °C
CC(C)(C)OC(=O)N1C[C@H](C(=O)O)[C@@H](C(F)(F)F)C1 | 117 to 119 °C
CSc1ccccc1CC(=O)O | 115 to 117 °C
OCCn1nc(-c2ccccc2)cc1-c1ccccc1 | 96 to 98 °C
Nc1ccc(Oc2ccc(C(F)(F)F)cn2)c(F)c1 | 90 to 92 °C
Cn1cc(C2CC2C(=O)O)cn1 (configuration not stated) | 138 to 140 °C
Nc1ccc(C=O)cc1[N+](=O)[O-] | 173 to 175 °C
Cc1ccc(NC(=O)NCC2CCCNC2)cc1 (configuration not stated) | 161 to 163 °C
CN(C)c1nc[nH]c(=O)c1N | 158 to 160 °C
CCS(=O)(=O)c1ccc(C(=O)O)c(N)c1 | 184 to 186 °C
O=C(O)C1CCN(S(=O)(=O)c2ccc(Br)s2)CC1 | 166 to 168 °C
Cn1c(CO)nnc1C1CCC1 | 133 to 135 °C
CC(Nc1nc2ccccc2s1)C(=O)O (configuration not stated) | 259 to 261 °C
O=C(CCCl)Nc1ccc(S(=O)(=O)N2CCCC2)cc1 | 174 to 176 °C
CCOC(=O)c1c[nH]cc(C)c1=O | 225 to 227 °C

SMILES | melting point
O=C1NC(=O)C2(CCCN(Cc3ccccc3)C2)N1 (configuration not stated) | 209 to 211 °C
Cc1ccc(-c2cn[nH]c2)cc1 | 217 to 219 °C
NC(=O)C1CNc2ccccc2C1 (configuration not stated) | 121 to 123 °C
Clc1ccc(-c2noc(Cl)n2)cc1 | 59 to 61 °C
CCc1nnc2cc(Cl)ncn12 | 108 to 110 °C
O=C(O)c1ccc(N2CCC(O)CC2)cc1 | 259 to 261 °C
Sc1nc(-c2ccccn2)no1 | 146 to 148 °C
Cc1cc(C)nc(-n2cc(C(=O)O)c(C(C)C)n2)n1 | 171 to 173 °C
CCOC(=O)C(=O)c1c(C)[nH]c2ccccc12 | 127 to 129 °C
O=C(COc1ccc2c(c1)CCC2)c1ccc(Cl)c(Cl)c1 | 89 to 91 °C
N#Cc1cnn(-c2ncccn2)c1N | 320 to 322 °C
O=S(=O)(NCCBr)c1ccccc1 | 54 to 56 °C
Cc1cc(NC(=O)c2ccccc2I)sc1C(=O)O | 202 to 204 °C
Cc1cc(C)c2nc(Cl)cc(C)c2c1 | 128 to 132 °C
Cc1ccc2cc(C=O)c(Cl)nc2c1 | 148 to 150 °C
CCc1c(C(=O)O)cnn1C(C)(C)C | 133 to 135 °C
Cc1cc(-c2nc3cc(F)ccc3s2)ccc1N | 191 to 193 °C
CCc1ccsc1C(N)=O | 146 to 148 °C
NC(=O)c1ccc(OCC(=O)O)cc1 | 264 to 266 °C
O=C1/C(=C\C=C\c2ccco2)CCC/C1=C\C=C\c1ccco1 | 162 to 164 °C
CC1=NN(CC(C)C)C(=O)C1 | 124 to 126 °C
Nc1ccc(NC(=O)NCC2CCCO2)cc1 (configuration not stated) | 141 to 143 °C
CCCc1noc2ncc(C(=O)O)cc12 | 174 to 176 °C
O=C(O)C(O)c1cc(Cl)cc(Cl)c1 (configuration not stated) | 99 to 101 °C

SMILES | melting point
CCCC=C(C#N)C(=O)O | 96 to 98 °C
COc1cc(C#N)cc(Cl)c1O | 141 to 143 °C
Cc1cc(C)c([N+](=O)[O-])c(=O)[nH]1 | 179 to 181 °C
Cc1cc(F)cc2c(=O)c(C(=O)O)c[nH]c12 | 289 to 291 °C
Cc1ccc(S(=O)(=O)OCc2nc3ccccc3s2)cc1 | 108 to 110 °C
O=C(O)c1ccc([N+](=O)[O-])cc1I | 139 to 141 °C
CC(C)c1noc(N)n1 | 101 to 103 °C
CCOC(=O)/C(C#N)=C/Nc1ccc(I)cc1 | 155 to 157 °C
COc1ccc(OC)c2c(O)c(C(=O)O)cnc12 | 272 to 274 °C
NC(=O)C1CCCN1Cc1ccccc1N (configuration not stated) | 121 to 123 °C
N#CCN(CC#N)C(=O)CCCl | 62 to 64 °C
Cc1cc(C)c2oc(N)nc2c1 | 197 to 199 °C
CCN(CC)S(=O)(=O)c1ccc(C)c(N)c1 | 108 to 112 °C
N#Cc1cc([N+](=O)[O-])ccc1N1CCC(C(=O)O)CC1 | 161 to 163 °C
Cc1ccnc(NN)c1 | 74 to 76 °C
COc1cccc(Cn2c(N)cc(=O)[nH]c2=O)c1 | 292 to 294 °C
O=C(Cc1ccc(Br)cc1)Nc1cccc(C(=O)O)c1 | 291 to 293 °C
COc1ccc(S(N)(=O)=O)cc1[N+](=O)[O-] | 139 to 141 °C
O=C(O)CCN1C(=O)c2ccccc2S1(=O)=O | 164 to 166 °C
CC(C)C(C#N)NC(=O)c1ccccc1 (configuration not stated) | 106 to 108 °C
Cc1ncc(CO)n1-c1ccccc1 | 173 to 175 °C
O=C(CCl)Nc1ccc(OC(F)(F)F)cc1 | 71 to 74 °C
OC1CCc2c(F)cccc21 (configuration not stated) | 59 to 61 °C
O=C(CCl)Nc1nc2ccc(F)cc2s1 | 170 to 172 °C

SMILES | melting point
N#Cc1nc(-c2ccco2)oc1N1CCNCC1 | 129 to 131 °C
O=C(NC1(c2nn[nH]n2)CCCC1)c1ccccc1 | 228 to 230 °C
CCC(CC)n1ccc(C(=O)O)n1 | 68 to 70 °C
Cc1ccc(C)c(S(=O)(=O)Oc2ccccc2C(=O)O)c1 | 120 to 122 °C
ClCc1cc(Cl)c2c(c1)OCCO2 | 59 to 61 °C
O=C(O)CN1CCC(=O)NC1=O | 197 to 199 °C
CC(C)C(NC(=O)c1ccncc1)C(=O)O (configuration not stated) | 187 to 189 °C
Nc1cc(CSCCO)ccn1 | 90 to 92 °C
O=C(O)/C=C/c1cc(Cl)ccc1Cl | 192 to 194 °C
O=C(c1cccc(S(=O)(=O)Cl)c1)N1CCCC1 | 65 to 67 °C
CCOC(=O)Cc1csc(NC(=O)Cc2ccccc2)n1 | 92 to 94 °C
Sc1nnc2n(-c3ccccc3)c(-c3ccccc3)nn12 | 237 to 239 °C
O=C(O)Cn1ccc2ccccc21 | 169 to 171 °C
CCc1ccc(N)cc1[N+](=O)[O-] | 44 to 46 °C
NS(=O)(=O)CCCF | 45 to 47 °C
Cc1ccccc1-n1nc(-c2ccccc2)cc1N | 109 to 111 °C
Cc1ccc(NC(=O)CCl)cc1S(=O)(=O)N1CCCCCC1 | 74 to 76 °C
CC(C)(C)OC(=O)N1CCN(c2ccc(CN)cc2F)CC1 | 69 to 71 °C
CC(C)C(N)c1nn[nH]n1 (configuration not stated) | 272 to 274 °C
O=C(O)C1(c2ccc(F)cc2)CCCCC1 | 137 to 139 °C
COC(=O)c1c(NC(=O)OC(C)(C)C)c[nH]c1C | 109 to 111 °C
O=C(O)C1(c2c(Cl)cccc2Cl)CC1 | 216 to 218 °C
Cc1cc(Br)cc2ccc(=O)[nH]c12 | 278 to 280 °C
CCC(Oc1ccccc1Cl)C(=O)O (configuration not stated) | 82 to 84 °C

SMILES | melting point
COc1ccc(-c2nc(C=O)cs2)cc1 | 97 to 99 °C
O=S1(=O)CC(SCc2ccccc2)c2ccccc21 (configuration not stated) | 72 to 74 °C
O=C(O)c1ccc(Br)c(S(=O)(=O)N2CCOCC2)c1 | 167 to 169 °C
N#Cc1nc(Cl)cc(N)c1N | 249 to 251 °C
CC(C)COc1ncc(C(=O)O)cc1Cl | 106 to 108 °C
O=C(O)CCCOc1ccccc1Br | 87 to 89 °C
NNc1ccc(S(=O)(=O)C(F)(F)F)cc1 | 93 to 95 °C
CC(=O)c1cccc(N2CCOC2=O)c1 | 82 to 84 °C
COc1cc(C(=O)O)ccc1OCc1ccccn1 | 149 to 151 °C
NC1(C(=O)O)CCCSC1 (configuration not stated) | 208 to 210 °C
CC(=O)c1ccc(N2CCCCC2)c(F)c1 | 67 to 69 °C
Cn1cc(C(=O)O)c(=O)c2cc(Cl)ccc21 | 302 to 304 °C
CC(=O)c1c(Cl)nc2sccn12 | 159 to 161 °C
OCCCNC(c1ccccc1)c1ccccc1 | 62 to 64 °C
Nc1nc(-c2ccccc2OC(F)F)cs1 | 73 to 75 °C
N#Cc1cc(Br)ccc1S(=O)(=O)Cl | 94 to 96 °C
O=C(O)Cc1ccc(NC(=O)c2cscn2)cc1 | 184 to 186 °C
O=C(Nc1ccccc1)c1cccc(-n2ccnc2S)c1 | 228 to 230 °C
O=C(NCO)c1ccc(Cl)cc1 | 145 to 147 °C
CSCc1cccc(C(=O)O)c1 | 78 to 80 °C
CCc1nc(C(=O)O)nn1-c1ccccc1Cl | 164 to 166 °C
CC(CCc1ccccc1)NS(=O)(=O)c1ccc(Cl)c(C(=O)O)c1 (configuration not stated) | 94 to 96 °C
O=C(O)C1(c2ccc(Cl)cc2)CCOCC1 | 181 to 183 °C
CC(C)c1cc(Br)cc([N+](=O)[O-])c1N | 39 to 41 °C

SMILES | melting point
Clc1nc(-c2ccccc2)ns1 | 51 to 53 °C
Nc1ccc(N2CCCCC2)c(Cl)c1 | 53 to 55 °C
Cc1ccc(NC(N)=O)cc1F | 190 to 192 °C
Cc1cc(=O)n2nc(Br)sc2n1 | 167 to 169 °C
O=C(O)C1CCCCN1S(=O)(=O)c1ccc([N+](=O)[O-])cc1 (configuration not stated) | 161 to 163 °C
NNC(=O)Nc1ccc(Cl)cc1Cl | 153 to 155 °C
CC(C)(C)OC(=O)N1CC(OS(C)(=O)=O)C1 | 65 to 67 °C
O=S1(=O)CCN1 | 51 to 53 °C
CC(C)c1ccc(C(N)=S)cc1 | 148 to 150 °C
O=C1NC(=O)c2cc(S(=O)(=O)Cl)ccc21 | 163 to 165 °C
O=C(O)c1cc2occc2s1 | 188 to 190 °C
CS(=O)(=O)Cc1c(C(=O)O)sc2ccccc12 | 276 to 278 °C
COC(=O)c1c(S)nc2ccccc2c1O | 179 to 181 °C
NCc1ccc(-n2cnc3ccccc32)nc1 | 97 to 99 °C
Cc1ccc(N)c(C)c1O | 102 to 104 °C
O=C1CCCc2sccc21 | 38 to 40 °C
O=C(O)C1CCCN(C(=O)NC2CCCC2)C1 (configuration not stated) | 167 to 169 °C
O=C(O)c1ccc(F)c(COCC2CC2)c1 | 69 to 71 °C
Cn1cc(N)cc(Br)c1=O | 159 to 161 °C
COc1ccsc1C(N)=O | 147 to 149 °C
CS(=O)(=O)CBr | 34 to 36 °C
CN(C)C(=O)c1ccc(C#N)cc1 | 93 to 95 °C
